{"source": "paper PMC11506774", "about": "(Biomolecules, 2024)", "key": {"Echo 30/WZ16": {"system": "Echo 30/WZ16", "conditions": "RD cells, 24 h, crystal violet"}, "Poliovirus 3/nOPV3": {"system": "Poliovirus 3/nOPV3", "conditions": "24 h"}, "EV-A71/FY0805 [1]": {"system": "EV-A71/FY0805", "conditions": "for IC50 (µg/mL) EV-A71 /FY0805: 24 h"}, "EV-D68/BCH895A": {"system": "EV-D68/BCH895A", "conditions": "RD cells, 24 h, crystal violet"}, "RD cells": {"system": "RD cells", "assay": "Cytotoxicity assay (CCK-8)", "assay_type": "cell-based", "conditions": "24 h, 2-fold dilutions from 1 mg/mL, CCK-8, absorbance 450 nm, mean ± SD, at least two independent experiments", "procedure": "RD cells at a density of 4 × 10^4/100 µL/well were seeded in 96-well plates 24 h prior to the cytotoxicity assay. The peptide P25 and its derivatives were reconstituted in DMSO to a concentration of 25 mg/mL and then diluted to 1 mg/mL in DMEM with 100 mM HEPES, from which 2-fold serial dilutions of the peptides were produced, starting with the same medium. DMSO diluted in the same medium served as the control. Fifty microliters of diluted peptides and the control medium were added to the cells and cultured for 24 h. After cultivation, 5 µL of the enhanced CCK-8 reagent (Beyotime, C0043, Shanghai, China) were added directly to each well of the cell culture and cultured for an additional hour. Absorbance at 450 nm was detected using a TECAN Infinite 200 PRO instrument. The cell viability was normalized to the control, and the concentration at which a peptide inhibited 50% of the cell viability (CC50) was calculated using GraphPad Prism 9.5.1 (GraphPad software, San Diego, CA, USA)."}, "EV-A71/FY0805 [2]": {"system": "EV-A71/FY0805", "assay": "Receptor competition inhibition assay with cell-free heparan sulfate (HS)", "assay_type": "cell-based", "conditions": "peptide 62.5 µg/mL pre-incubated with HS (0–0.5 mg/mL) for 1 h, then mixed with 100 TCID50/50 µL EV-A71/FY0805, RD cells 24 h, crystal violet", "procedure": "To confirm the interaction of P25 with receptor heparan sulfate (HS) on the cell surface, 50 µL P25 or its derivatives at a concentration of 62.5 µg/mL were pre-incubated with 50 µL cell-free HS (MCE, HY-101916, Princeton, NJ, USA) at different concentrations of 0–0.5 mg/mL at 37 °C for 1 h, mixed with 100 TCID50/50 µL of EV-A71/FY0805, and infected the pre-seeding RD monolayer cells on 96-well plates for 24 h. The CPE was detected and stained using crystal violet. The optical density (OD) at 550 nm was read using the TECAN Infinite 200 PRO instrument."}, "HCV": {"system": "HCV", "conditions": "cited from earlier work"}, "EV-A71": {"system": "EV-A71", "conditions": "Table S2, anti-viral target EV-A71; ref [21]; cited from earlier work", "source_text": "page 2: Biomolecules 2024, 14, 1331. https://doi.org/10.3390/biom14101331 2 of 10 Table S2. Self-derived antiviral peptides. Source Virus Protein Peptide Sequence Mechanism Anti-viral EC50 Reference target […] Interfering PA- Influenza A PB1 PB11-25 TTFPYT binding domain of Influenza A / [48] PB1 PB1731– […] Interfering PB1- Influenza A PB1 757 ELGRQK binding domain of Influenza A / [22] PB2 EV-A71 VP1 SP40 […] Prevented EV-A71 EV-A71 6-9.3 [21] attachment μM […] Inhibiting S 0.32- HCoV-19 S P3 […] mediated cell–cell HC ..."}, "[3]": {"conditions": "co-treatment, 100 TCID50/50 µL, mean ± SD, at least two independent experiments, >125 = protection less than 50% at 125 µg/mL, NO = no inhibition observed"}, "[4]": {"conditions": "peptide at 125 µg/mL (about 56 µM) co-incubated with 100 TCID50/50 µL virus"}}, "note": "Ends that are not written are not given here.", "data": [{"molecule": "CC[C@H](C)[C@H](NC(=O)[C@H](CCCNC(=N)N)NC(=O)[C@@H](NC(=O)[C@@H](NC(=O)[C@@H](NC(=O)[C@H](CCCCN)NC(=O)[C@H](Cc1ccccc1)NC(=O)CN)C(C)C)C(C)C)[C@@H](C)O)C(=O)N[C@@H](Cc1ccc(O)cc1)C(=O)N[C@@H](Cc1c[nH]cn1)C(=O)N[C@@H](CCCCN)C(=O)N[C@@H](C)C(=O)N[C@@H](CCCCN)C(=O)N[C@@H](Cc1c[nH]cn1)C(=O)N[C@H](C(=O)N[C@@H](CCCCN)C(=O)N[C@@H](C)C(=O)N[C@@H](Cc1c[nH]c2ccccc12)C(=O)N[C@@H](CS)C(=O)O)[C@@H](C)O", "note": "[Peptide P25.A81GF]", "values": [{"measurement": "IC50 (µg/mL) Echo 30 /WZ16", "setting": "Echo 30/WZ16; [3]", "value": ">125", "unit": "µg/mL"}, {"measurement": "IC50 (µg/mL) Poliovirus 3 /nOPV3", "setting": "Poliovirus 3/nOPV3", "value": ">125", "unit": "µg/mL"}, {"measurement": "IC50 (µg/mL) EV-A71 /FY0805", "setting": "EV-A71/FY0805 [1]", "value": "29.28 ± 3.97", "unit": "µg/mL"}, {"measurement": "IC50 (µg/mL) EV-D68 /BCH895A", "setting": "EV-D68/BCH895A; [3]", "value": ">125", "unit": "µg/mL"}]}, {"molecule": "AWAKIHKPKMYVRVTVTFG [Peptide P25.R]", "values": [{"measurement": "CC50", "setting": "RD cells", "value": "98.27 ± 7.13", "unit": "µg/mL"}]}, {"molecule": "CC[C@H](C)[C@H](NC(=O)[C@H](CCCNC(=N)N)NC(=O)[C@@H](NC(=O)[C@@H](NC(=O)[C@@H](NC(=O)[C@H](CCCCN)NC(=O)[C@@H](NC(=O)[C@@H](N)CCCCN)C(C)C)C(C)C)C(C)C)[C@@H](C)O)C(=O)N[C@@H](Cc1ccc(O)cc1)C(=O)N[C@@H](Cc1c[nH]cn1)C(=O)N[C@@H](CCCCN)C(=O)N[C@@H](C)C(=O)N[C@@H](CCCCN)C(=O)N[C@@H](Cc1c[nH]cn1)C(=O)N[C@H](C(=O)N[C@@H](CCCCN)C(=O)N[C@@H](C)C(=O)N[C@@H](Cc1c[nH]c2ccccc12)C(=O)N[C@@H](CS)C(=O)O)[C@@H](C)O", "note": "[Peptide P25.A81]", "values": [{"measurement": "Antiviral activity of P25 homologous peptides to EV-A71/FY0805", "setting": "EV-A71/FY0805 [1]", "value": "displayed antiviral activity"}, {"measurement": "IC50 (µg/mL) EV-A71 /FY0805", "setting": "EV-A71/FY0805 [1]", "value": "23.60 ± 0.49", "unit": "µg/mL"}]}, {"molecule": "CC[C@H](C)[C@H](NC(=O)[C@H](Cc1c[nH]cn1)NC(=O)[C@H](CCCCN)NC(=O)[C@@H]1CCCN1C(=O)[C@H](CCCCN)NC(=O)[C@H](CCSC)NC(=O)[C@H](Cc1ccc(O)cc1)NC(=O)[C@@H](NC(=O)[C@H](CCCNC(=N)N)NC(=O)[C@@H](NC(=O)[C@@H](NC(=O)[C@@H](NC(=O)[C@@H](NC(=O)[C@@H](N)Cc1ccccc1)[C@@H](C)O)C(C)C)[C@@H](C)O)C(C)C)C(C)C)C(=O)N[C@@H](CCCCN)C(=O)N[C@@H](C)C(=O)N[C@@H](Cc1c[nH]c2ccccc12)C(=O)N[C@@H](C)C(=O)O", "note": "[Peptide P25.8]", "values": [{"measurement": "Interference of HS with the antiviral activity of the peptide", "setting": "EV-A71/FY0805 [2]", "value": "interfered with by HS"}, {"measurement": "CC50", "setting": "RD cells", "value": "213.07 ± 29.72", "unit": "µg/mL"}, {"measurement": "IC50 (µg/mL) Poliovirus 3 /nOPV3", "setting": "Poliovirus 3/nOPV3", "value": "61.65 ± 4.59", "unit": "µg/mL"}, {"measurement": "IC50 (µg/mL) EV-A71 /FY0805", "setting": "EV-A71/FY0805 [1]", "value": "24.49 ± 2.96", "unit": "µg/mL"}]}, {"molecule": "SFAIKWEYVLLLFLL [Peptide 75]", "values": [{"measurement": "EC50", "setting": "HCV", "value": 300, "unit": "nM"}]}, {"molecule": "HGLLYFAIFFVAAWHIRGR [Peptide H2-3]", "values": [{"measurement": "EC50", "setting": "HCV", "value": 540, "unit": "nM"}]}, {"molecule": "CC[C@H](C)[C@H](NC(=O)[C@H](Cc1c[nH]cn1)NC(=O)[C@H](CCCCN)NC(=O)[C@@H]1CCCN1C(=O)[C@H](CCCCN)NC(=O)[C@H](CCSC)NC(=O)[C@H](Cc1ccc(O)cc1)NC(=O)[C@@H](NC(=O)[C@H](CCCNC(=N)N)NC(=O)[C@@H](NC(=O)[C@@H](NC(=O)[C@@H](NC(=O)[C@@H](N)[C@@H](C)O)C(C)C)[C@@H](C)O)C(C)C)C(C)C)C(=O)N[C@@H](CCCCN)C(=O)N[C@@H](C)C(=O)N[C@@H](Cc1c[nH]c2ccccc12)C(=O)N[C@@H](C)C(=O)O", "note": "[Peptide P25.5]", "values": [{"measurement": "Interference of HS with the antiviral activity of the peptide", "setting": "EV-A71/FY0805 [2]", "value": "No significant interference"}, {"measurement": "IC50 (µg/mL) EV-A71 /FY0805", "setting": "EV-A71/FY0805 [1]", "value": ">125", "unit": "µg/mL"}]}, {"molecule": "CC[C@H](C)[C@H](NC(=O)[C@H](Cc1c[nH]cn1)NC(=O)[C@H](C)NC(=O)[C@@H]1CCCN1C(=O)[C@H](CCCCN)NC(=O)[C@H](CCSC)NC(=O)[C@H](Cc1ccc(O)cc1)NC(=O)[C@@H](NC(=O)[C@H](CCCNC(=N)N)NC(=O)[C@@H](NC(=O)[C@@H](NC(=O)[C@@H](NC(=O)[C@@H](NC(=O)[C@H](Cc1ccccc1)NC(=O)CN)[C@@H](C)O)C(C)C)[C@@H](C)O)C(C)C)C(C)C)C(=O)N[C@@H](C)C(=O)N[C@@H](C)C(=O)N[C@@H](Cc1c[nH]c2ccccc12)C(=O)N[C@@H](C)C(=O)O", "note": "[Peptide P25.12]", "values": [{"measurement": "IC50 (µg/mL) EV-A71 /FY0805", "setting": "EV-A71/FY0805 [1]", "value": "41.17 ± 7.04", "unit": "µg/mL"}]}, {"molecule": "TVTVRVYHK [Peptide P25.4]", "values": [{"measurement": "IC50 (µg/mL) EV-A71 /FY0805", "setting": "EV-A71/FY0805 [1]", "value": ">125", "unit": "µg/mL"}]}, {"molecule": "QMRRKVELFTYMRFD [SP40, peptide derived from VP1 of EV-A71, prevented EV-A71 attachment]", "values": [{"measurement": "EC50", "setting": "EV-A71", "value": "6000 to 9300", "unit": "nM"}]}, {"molecule": "GFTVTVRVYMK [Peptide P25.1]", "values": [{"measurement": "IC50 (µg/mL) EV-A71 /FY0805", "setting": "EV-A71/FY0805 [1]", "value": "34.06 ± 9.39", "unit": "µg/mL"}]}, {"molecule": "TVTVRVYMK [Peptide P25.3]", "values": [{"measurement": "IC50 (µg/mL) EV-A71 /FY0805", "setting": "EV-A71/FY0805 [1]", "value": ">125", "unit": "µg/mL"}]}, {"molecule": "CC[C@H](C)[C@H](NC(=O)[C@H](Cc1c[nH]cn1)NC(=O)[C@H](CCCCN)NC(=O)[C@@H]1CCCN1C(=O)[C@H](CCCCN)NC(=O)[C@H](CCSC)NC(=O)[C@H](Cc1ccc(O)cc1)NC(=O)[C@@H](NC(=O)[C@H](CCCNC(=N)N)NC(=O)[C@@H](NC(=O)[C@@H](NC(=O)[C@@H](NC(=O)[C@@H](N)[C@@H](C)O)C(C)C)[C@@H](C)O)C(C)C)C(C)C)C(=O)N[C@@H](CCCCN)C(=O)O", "note": "[Peptide P25.2]", "values": [{"measurement": "IC50 (µg/mL) EV-A71 /FY0805", "setting": "EV-A71/FY0805 [1]", "value": ">125", "unit": "µg/mL"}]}, {"molecule": "SWLRDIWDWICEVLSDFK [Peptide C5A, peptide from NS5A of HCV, destabilizing viral membranes]", "values": [{"measurement": "EC50", "setting": "HCV", "value": 340, "unit": "nM"}]}, {"molecule": "ADKNFFKWTINTRSFVQLRR [Peptide P11]", "values": [{"measurement": "Inhibitory effect on CPE, peptide screen", "setting": "Echo 30/WZ16; [4]", "value": "exhibited inhibitory effects on CPE"}, {"measurement": "Inhibitory effect on CPE, peptide screen", "setting": "EV-A71/FY0805 [1]", "value": "exhibited inhibitory effects on CPE"}, {"measurement": "Inhibitory effect on CPE, peptide screen", "setting": "EV-D68/BCH895A; [4]", "value": "exhibited inhibitory effects on CPE"}]}]}
